Results on 15 molecules are retold here after publication PMC6463675, “Panax ginseng Inhibits Metabolism of Diester Alkaloids by Downregulating CYP3A4 Enzyme Activity via the Pregnane X Receptor” (Evidence-based Complementary and Alternative Medicine : eCAM, 2019).

In one series the target is T1, CYP2E1 (Homo sapiens, UniProt P05181).
T1 construct: tissue Rild-biotech X008067; host or cells: human liver microsomes
As to the kind of experiment: Specific inhibitor method in HLMs: diethyldithiocarbonate. In kind it is in vitro ADME. The note with it: alkaloid 20 μM, DDTC 1 μM (CYP2E1), 37°C 60 min, P > 0.05. The procedure:
(§1) To screen the CYP isoforms for aconitine, mesaconitine, and hypaconitine metabolism, we used known inhibitors of the metabolism of aconitine, mesaconitine, and hypaconitine in HLMs. ANF (CYP1A2: 1 μM; CAS: […]), SPE (CYP2C9: 1 μM; CAS: 526-08-9), DDTC (CYP2E1: 1 μM; CAS: 148-18-5), and KEN (CYP3A4: 1 μM; CAS: 65277-42-1) were all from EFEBIO Co., Ltd., which were incubated separately with aconitine, mesaconitine, and hypaconitine (20 μM), HLMs, and NADPH under the same incubation conditions as mentioned above. […] The hepatic metabolism rate of the incubation solution with no inhibitor was used as the negative control. The HLM (Rild-biotech, shanghai, China, X008067 ) mixtures were incubated at 37°C for 60 min. NADPH was preincubated for 5 min before it was added to the system. Precooled acetonitrile/methanol (800 μL, 1:1, v/v) was added to stop the incubation. […] Aconitine, mesaconitine, and hypaconitine standards of different concentrations were added to the incubation system to obtain the standard curve.

Series [1] has as its target T2, CYP3A4 (Homo sapiens, UniProt P08684). Nature of the series: Specific inhibitor method in HLMs: ketoconazole. The following applies: alkaloid 20 μM, KEN 1 μM (specific inhibitor for CYP3A), 37°C 60 min, n = 3. In kind it is in vitro ADME. Also noted: tissue Rild-biotech X008067; host or cells: human liver microsomes. On the procedure: as §1
Target sequence in this assay (P08684 whole entry): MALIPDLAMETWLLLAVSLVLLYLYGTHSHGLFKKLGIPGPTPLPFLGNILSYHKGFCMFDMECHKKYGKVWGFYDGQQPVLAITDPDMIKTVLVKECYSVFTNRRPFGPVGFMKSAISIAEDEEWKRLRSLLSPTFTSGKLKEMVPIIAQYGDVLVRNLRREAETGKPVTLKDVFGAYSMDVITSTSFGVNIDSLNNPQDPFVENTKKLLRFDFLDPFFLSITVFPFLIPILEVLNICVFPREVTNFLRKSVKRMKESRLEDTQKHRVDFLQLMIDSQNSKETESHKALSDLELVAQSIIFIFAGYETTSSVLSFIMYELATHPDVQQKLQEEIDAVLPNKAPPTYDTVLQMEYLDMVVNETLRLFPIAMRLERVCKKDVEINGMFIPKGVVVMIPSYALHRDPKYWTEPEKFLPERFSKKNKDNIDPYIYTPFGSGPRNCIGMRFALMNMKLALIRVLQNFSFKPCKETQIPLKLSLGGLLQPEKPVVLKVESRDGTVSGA
For a further series, the target named is T3, recombinant human CYP1A2 (Homo sapiens, UniProt P05177).
T3 construct: purchased Corning 456203; host or cells: baculovirus infected insect cells (BTI-TN-5B1-4)
T3 sequence (P05177 2-516 limits assumed): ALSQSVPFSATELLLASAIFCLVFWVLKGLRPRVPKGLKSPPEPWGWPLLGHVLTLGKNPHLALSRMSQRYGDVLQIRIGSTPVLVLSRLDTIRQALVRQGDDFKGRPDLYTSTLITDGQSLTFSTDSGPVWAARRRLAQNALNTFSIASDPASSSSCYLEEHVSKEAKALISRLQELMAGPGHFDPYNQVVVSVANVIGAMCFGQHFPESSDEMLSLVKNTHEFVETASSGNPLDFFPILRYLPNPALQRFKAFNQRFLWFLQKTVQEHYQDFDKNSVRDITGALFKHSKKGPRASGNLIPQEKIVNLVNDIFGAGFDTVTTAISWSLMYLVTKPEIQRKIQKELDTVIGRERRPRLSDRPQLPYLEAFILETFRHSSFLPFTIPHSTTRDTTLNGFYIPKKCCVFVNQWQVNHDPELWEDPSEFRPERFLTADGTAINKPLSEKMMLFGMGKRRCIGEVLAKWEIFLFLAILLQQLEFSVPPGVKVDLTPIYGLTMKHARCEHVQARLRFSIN
Nature of the series: Kinetic analysis in recombinant human CYP1A2. The format is in vitro ADME. The note with it: substrate 5, 10, 20, 40 μM, 37°C 90 min, n = 3. The text has this:
(§2) Recombinant human cytochrome P450 enzymes were obtained from Corning (USA, CYP3A4:456202; CYP1A2:456203; CYP2C9:456218; CYP2E1:456206). The activity were catalyzed by CYP3A4/CYP1A2/CYP2C9/CYP2E1, which were expressed from human CYP3A4/CYP1A2/CYP2C9/CYP2E1 cDNA, respectively, using a baculovirus expression system. Baculovirus infected insect cells (BTI-TN-5B1-4) were used to prepare these microsomes. These microsomes also contain cDNA-expressed humans P450 reductase and human cytochrome b5. A microsome preparation using wild type virus (Catalog No. 456201) was used as a control for native activities.
(§3) The kinetic parameters for the metabolism of aconitine, mesaconitine, and hypaconitine were determined by incubating increasing concentrations of aconitine, mesaconitine, and hypaconitine (5, 10, 20, and 40 μM) at 37°C for 90min with recombinant human CYP isoforms and NADPH under the incubation conditions described above. Precooled acetonitrile/methanol (800 μL, 1:1, v/v) was added to stop the incubation.
The compound reaction velocity (V) is expressed as V = (C0 – Ct)/T/Cp, where C0 and Ct are the initial and final concentrations of aconitine, mesaconitine, or hypaconitine in the incubation solution, respectively, T is the incubation time (min), and Cp is the protein concentration (mg·mL^−1 or nmol). […] All values are expressed as the mean ± standard deviation (SD).

Series [2] concerns the target T2, CYP3A4. Nature of the series: Kinetic analysis in recombinant human CYP3A4. In kind it is in vitro ADME. Also noted: purchased Corning 456202; host or cells: baculovirus infected insect cells (BTI-TN-5B1-4). The note with it: for in vitro mean intrinsic clearance rate by CYP3A4: CLint = Vmax/KM.
Excerpt: as §2, §3
Target sequence in this assay (P08684 2-503 limits assumed): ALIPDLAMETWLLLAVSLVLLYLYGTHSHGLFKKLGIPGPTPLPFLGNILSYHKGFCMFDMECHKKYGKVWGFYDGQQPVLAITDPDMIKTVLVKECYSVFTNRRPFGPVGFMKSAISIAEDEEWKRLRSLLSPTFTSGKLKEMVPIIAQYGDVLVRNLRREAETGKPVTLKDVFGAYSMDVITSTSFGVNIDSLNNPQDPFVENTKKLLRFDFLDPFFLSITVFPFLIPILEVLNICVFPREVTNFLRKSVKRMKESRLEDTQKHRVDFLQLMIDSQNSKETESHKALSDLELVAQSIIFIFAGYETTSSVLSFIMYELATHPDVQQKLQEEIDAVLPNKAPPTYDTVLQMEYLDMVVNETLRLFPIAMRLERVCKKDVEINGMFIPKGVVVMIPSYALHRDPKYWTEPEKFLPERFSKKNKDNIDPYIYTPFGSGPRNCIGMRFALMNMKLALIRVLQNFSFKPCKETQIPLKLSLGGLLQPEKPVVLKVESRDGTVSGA
The compound reaction velocity (V) is expressed as V = (C0 – Ct)/T/Cp, where C0 and Ct are the initial and final concentrations of aconitine, mesaconitine, or hypaconitine in the incubation solution, respectively, T is the incubation time (min), and Cp is the protein concentration (mg·mL^−1 or nmol). The mean intrinsic clearance rate (CLint) for the in vitro incubation was estimated using Vmax/KM, where Vmax is the maximum velocity and KM is the Michaelis constant. All values are expressed as the mean ± standard deviation (SD).

Series [3] relates to CYP3A4. Nature of the series: Cocktail method: pharmacokinetics of probe drug midazolam after P. ginseng. The following applies: rats, ketoconazole 40 mg·kg^−1 intraperitoneal 3 days, midazolam 10 mg·kg^−1 caudal vein.
A further series relates to PXR. On the set-up: method as in PMID 23600156. The note with it: previous work of the authors; cited from earlier work.
Series [4] has as its system CYP3A4. On the set-up: method as in PMID 23600156. The following applies: concentration-dependent manner; cited from earlier work.
[5] abbreviates: recombinant human CYP3A4, substrate 5, 10, 20, 40 μM, 37°C 90 min, n = 3.

T1 sequence (P05181 whole entry): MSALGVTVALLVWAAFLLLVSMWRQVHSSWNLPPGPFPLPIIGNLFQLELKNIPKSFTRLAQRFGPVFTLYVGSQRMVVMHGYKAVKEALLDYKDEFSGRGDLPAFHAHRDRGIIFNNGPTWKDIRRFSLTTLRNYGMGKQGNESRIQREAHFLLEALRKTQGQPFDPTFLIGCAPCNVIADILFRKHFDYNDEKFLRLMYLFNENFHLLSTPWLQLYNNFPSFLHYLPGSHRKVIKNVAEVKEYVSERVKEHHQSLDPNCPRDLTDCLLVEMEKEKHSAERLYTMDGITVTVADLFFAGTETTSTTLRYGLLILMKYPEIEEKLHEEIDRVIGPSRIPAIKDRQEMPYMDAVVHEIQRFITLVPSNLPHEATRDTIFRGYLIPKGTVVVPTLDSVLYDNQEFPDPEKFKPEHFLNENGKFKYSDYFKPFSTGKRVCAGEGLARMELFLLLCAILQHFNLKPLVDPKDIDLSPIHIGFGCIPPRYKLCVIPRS

Broadly, the Km is the concentration of substrate that gives half-maximal velocity. `COC[C@]12CN(C)[C@@H]3[C@@H]4[C@H](OC)[C@H]1[C@@]3([C@@H](OC)C[C@H]2O)[C@@H]1C[C@@]2(O)[C@H](OC(=O)c3ccccc3)[C@@H]1[C@]4(OC(C)=O)[C@@H](O)[C@@H]2OC` [mesaconitine]: on CYP2E1, the “Hepatic metabolism rate after incubation with DDTC, compared with control” value (“Hepatic metabolism rate … compared with control” for short) is “no significant change”. Moreover, at CYP3A4 [1], the “Hepatic metabolism rate when incubated with KEN, compared with negative control” value came out at 21.67 ± 19.64%. The “Vmax of CYP1A2” value at recombinant human CYP1A2 is 0.27 ± 6.57 nmol·mg protein^−1·min^−1. For the same molecule, the “in vitro mean intrinsic clearance rate by CYP3A4” value at CYP3A4 [2] (recombinant human CYP3A4) was determined as 0.0056 mL·nmol CYP^−1·min^−1. For the same molecule, on CYP3A4 [2] (setting [5]), the Km turned out to be 131 ± 99.7 µM and the “Vmax of CYP3A4” value stood at 0.73 ± 0.44 nmol·mg protein^−1·min^−1.

`CC(=O)N1CCN(c2ccc(OCC3COC(Cn4ccnc4)(c4ccc(Cl)cc4Cl)O3)cc2)CC1` (stereo not drawn) [Ketoconazole]: the “AUC(0-t) of midazolam” value in the series with CYP3A4 [3] (control 2.23 ± 0.64) is 4.19 ± 0.14^∗∗ mg^.L^-1.h. Also, the “AUC(0-∞) of midazolam” value with CYP3A4 [3] (control 2.30 ± 0.59) is on record as 4.25 ± 0.15^∗∗ mg^.L^-1.h. Besides, the CLz of midazolam in the series on CYP3A4 [3] (control 4.66 ± 1.43) was 2.36 ± 0.08^∗∗ L^.h^-1.kg^−1. Also, the Cmax of midazolam in the series with CYP3A4 [3] (control 4.84 ± 1.89) is 10.48 ± 0.63^∗∗ mg^.L^−1.

Regarding `CC(C)=CCC[C@](C)(O)[C@H]1CC[C@]2(C)[C@@H]1[C@H](O)C[C@@H]1[C@@]3(C)CC[C@H](O[C@@H]4O[C@H](CO)[C@@H](O)[C@H](O)[C@H]4O[C@@H]4O[C@H](CO)[C@@H](O)[C@H](O)[C@H]4O)C(C)(C)[C@@H]3CC[C@]12C` [Rg3], the “Effect on PXR” value in the series on PXR is on record as “no obvious effects”.

Regarding `CC(C)=CCC[C@](C)(O)[C@H]1CC[C@]2(C)[C@@H]1[C@H](O)C[C@@H]1[C@@]3(C)CC[C@H](O[C@@H]4O[C@H](CO)[C@@H](O)[C@H](O)[C@H]4O)C(C)(C)[C@@H]3CC[C@]12C` [Rh2], the “Effect on PXR” value with PXR is on record as “no obvious effects”.

With `CC(C)=CCC[C@](C)(O)[C@H]1CC[C@]2(C)[C@@H]1[C@H](O)C[C@@H]1[C@@]3(C)CC[C@H](O)C(C)(C)[C@@H]3[C@@H](O[C@@H]3O[C@H](CO)[C@@H](O)[C@H](O)[C@H]3O[C@@H]3O[C@@H](C)[C@H](O)[C@@H](O)[C@H]3O)C[C@]12C` [ginsenoside Rg2], in the series with PXR, the “Effect on PXR” value is “inhibitory effects”.

pseudoginsenoside F11: the “Effect on PXR” value in the series with PXR is “inhibitory effects”.

`CC(C)=CCCC(C)(O)[C@H]1CC[C@]2(C)[C@@H]1[C@H](O)C[C@@H]1[C@@]3(C)CC[C@H](O)C(C)(C)[C@@H]3CC[C@]12C` (stereo in doubt) [protopanaxadiol]: the “Effect on PXR” value in the series on PXR is “no obvious effects”.

Take ginsenoside Rf1: in the series on PXR, the “Effect on PXR” value is on record as “no obvious effects”.

In the case of `CC(C)=CCC[C@](C)(O[C@@H]1O[C@H](CO[C@@H]2OC[C@@H](O)[C@H](O)[C@H]2O)[C@@H](O)[C@H](O)[C@H]1O)[C@H]1CC[C@]2(C)[C@@H]1[C@H](O)C[C@@H]1[C@@]3(C)CC[C@H](O[C@@H]4O[C@H](CO)[C@@H](O)[C@H](O)[C@H]4O[C@@H]4O[C@H](CO)[C@@H](O)[C@H](O)[C@H]4O)C(C)(C)[C@@H]3CC[C@]12C` [ginsenoside Rb3], the “Effect on PXR” value in the series on PXR is listed as “inhibitory effects”.

On to `CC(C)=CCC[C@](C)(O[C@@H]1O[C@H](CO)[C@@H](O)[C@H](O)[C@H]1O)[C@H]1CC[C@]2(C)[C@@H]1[C@H](O)C[C@@H]1[C@@]3(C)CC[C@H](O)C(C)(C)[C@@H]3[C@@H](O[C@@H]3O[C@H](CO)[C@@H](O)[C@H](O)[C@H]3O)C[C@]12C` [ginsenoside Rg1], for which the “CYP3A4 mRNA expression” value in the series with CYP3A4 [4] is “downregulated”. The “Effect on PXR” value in the series on PXR is given as “inhibitory effects”.

As to `CC(C)=CCC[C@](C)(O[C@@H]1O[C@H](CO)[C@@H](O)[C@H](O)[C@H]1O)[C@H]1CC[C@]2(C)[C@@H]1[C@H](O)C[C@@H]1[C@@]3(C)CC[C@H](O[C@@H]4O[C@H](CO)[C@@H](O)[C@H](O)[C@H]4O)C(C)(C)[C@@H]3CC[C@]12C` [Ginsenoside F2], in the series with PXR, the “Effect on PXR” value is listed as “moderate inductive effects”.

As for `CCN1C[C@]2(COC)[C@H](O)C[C@H](OC)[C@@]34[C@@H]5C[C@@]6(O)[C@H](OC(=O)c7ccccc7)[C@@H]5[C@@](OC(C)=O)([C@@H]([C@H](OC)[C@H]23)[C@@H]14)[C@@H](O)[C@@H]6OC` [aconitine], the “Hepatic metabolism rate … compared with control” value at CYP2E1 is on record as “no significant change”. Further, the “Hepatic metabolism rate when incubated with KEN, compared with negative control” value on CYP3A4 [1] worked out at 60.37 ± 5.01%. The Michaelis constant (Km) at 90 min on CYP3A4 [2] (human) turned out to be 10.1 ± 3.26 µM. Moreover, on CYP3A4 [2] (recombinant human CYP3A4), the “in vitro mean intrinsic clearance rate by CYP3A4” value is recorded as 0.0119 mL·nmol CYP^−1·min^−1. In addition, on CYP3A4 [2] (setting [5]), the “Vmax of CYP3A4” value stood at 0.12 ± 0.01 nmol·mg protein^−1·min^−1.

Turning to `CC(C)=CCC[C@](C)(O)[C@H]1CC[C@]2(C)[C@@H]1[C@H](O)C[C@@H]1[C@@]3(C)CC[C@H](O)C(C)(C)[C@@H]3[C@@H](O)C[C@]12C` [protopanaxatriol], the “Effect on PXR” value in the series on PXR is “moderate inductive effects”.

As for `CC1(C)CCC[C@](C)([C@H]2CC[C@]3(C)[C@@H]2[C@H](O)C[C@@H]2[C@@]4(C)CC[C@H](O)C(C)(C)[C@@H]4[C@@H](O)C[C@]23C)O1` [Panaxotriol], the “Effect on PXR” value in the series on PXR is listed as “inhibitory effects”.

For the molecule `COC[C@@]12CC[C@H](OC)[C@]34C(C([C@H](OC)[C@H]13)[C@]1(OC(C)=O)[C@H]3[C@@H](OC(=O)c5ccccc5)[C@](O)(C[C@H]34)[C@@H](OC)[C@@H]1O)N(C)C2` [hypaconitine], the “Hepatic metabolism rate … compared with control” value at CYP2E1 is on record as “no significant change”. For the same molecule, the “Hepatic metabolism rate when incubated with KEN, compared with negative control” value at CYP3A4 [1] turned out to be 10.11 ± 6.19%. Further, at CYP3A4 [2] (recombinant human CYP3A4), the “in vitro mean intrinsic clearance rate by CYP3A4” value worked out at 0.0091 mL·nmol CYP^−1·min^−1.
